Measured values: patent US4652638A, “3-O-acyl-4"-deoxydesmycosin derivatives” (Toyo Jozo Kabushiki Kaisha, priority 1983, dated 1987)
In brackets after ≈: the same amount, converted by molar mass. Like-named read-outs stand apart in the source and are kept apart here.

Legend:
Test in all cases: MIC (minimum inhibitory concentration)
Assay type in all cases: cell-based
[1] = test system: Staphylococcus aureus ATCC 6538P; details: ATCC6538P
[2] = test system: Staphylococcus aureus MS353
[3] = test system: Staphylococcus aureus MS353 C36; details: MS353C36
[4] = test system: Staphylococcus aureus MS353 A0*; details: * clinical isolate, macrolide-resistant bacteria A group
[5] = test system: Staphylococcus aureus 0119*
[6] = test system: Staphylococcus aureus 0127*
[7] = test system: Staphylococcus epidermidis sp-al-1; details: SPAL1
[8] = test system: Streptococcus pyogenes N.Y.5
[9] = test system: Streptococcus pyogenes 1022*
[10] = test system: Streptococcus faecalis 1501; details: Enterococcus faecalis
[11] = test system: Streptococcus agalaactiae 1020
Sarcina lutea ATCC 9341 = details: Micrococcus luteus, ATCC9341
[12] = test system: Micrococcus flavus ATCC 10240; details: ATCC10240
[13] = test system: Bacillus subtilis ATCC 6633; details: ATCC6633
[14] = test system: Escherichia coli NIHJ-JC2; details: NIHJJC2
Escherichia coli B = test system: Escherichia coli B
[15] = test system: Klebsiella pneumoniae ATCC 10031; details: ATCC10031
Salmonella typhosa H901 = details: Salmonella enterica
[16] = test system: Salmonella enteritidis Gaertner; details: Salmonella enterica
[17] = test system: Shigella flexineri type 3a; details: TYPE3A
Shigella sonnei E33 = test system: Shigella sonnei E33
Proteus vulgaris OX19 = test system: Proteus vulgaris OX19
Serratia marcescens = test system: Serratia marcescens
[18] = test system: Pseudomonas aeruginosa IAM 1095; details: IAM1095
[19] = test system: Corynebacterium diphtheriae P.Y.8
[20] = Staphylococcus epidermidis sp-al-1, read-out: MIC
[21] = Streptococcus pyogenes 1022, * clinical isolate, macrolide-resistant bacteria A group, read-out: MIC
[22] = Streptococcus faecalis 1501, read-out: MIC
[23] = Streptococcus agalaactiae 1020, read-out: MIC
[24] = Sarcina lutea ATCC 9341, read-out: MIC
[25] = Micrococcus flavus ATCC 10240, read-out: MIC
[26] = Bacillus subtilis ATCC 6633, read-out: MIC
[27] = Escherichia coli NIHJ-JC2, read-out: MIC
[28] = Escherichia coli B, read-out: MIC
[29] = Klebsiella pneumoniae ATCC 10031, read-out: MIC
[30] = Salmonella enteritidis Gaertner, read-out: MIC
[31] = Pseudomonas aeruginosa IAM 1095, read-out: MIC
[32] = Staphylococcus aureus 0119, * clinical isolate, macrolide-resistant bacteria A group, read-out: MIC
[33] = Salmonella typhosa H901, read-out: MIC

SMILES	MIC [1] [µg/mL]	MIC [2] [µg/mL]	MIC [3] [µg/mL]	MIC [4] [µg/mL]	MIC ([5]; Staphylococcus aureus) [µg/mL]	MIC ([6]; Staphylococcus aureus) [µg/mL]	MIC [7, 20] [µg/mL]	MIC [8] [µg/mL]	MIC [10, 22] [µg/mL]	MIC [11, 23] [µg/mL]	MIC (Sarcina lutea ATCC 9341; [24]) [µg/mL]	MIC [12, 25] [µg/mL]	MIC [13, 26] [µg/mL]	MIC [14, 27] [µg/mL]	MIC (Escherichia coli B; [28]) [µg/mL]	MIC [15, 29] [µg/mL]	MIC (Salmonella typhosa H901; TYPHOSA) [µg/mL]	MIC [16, 30] [µg/mL]	MIC [17] [µg/mL]	MIC (Shigella sonnei E33) [µg/mL]	other results
CCC1OC(=O)CC(OC(C)=O)C(C)C(OC2OC(C)C(O)C(N(C)C)C2O)C(CC=O)CC(C)C(=O)C=CC(C)=CC1COC1OC(C)CC(OC)C1OC (stereo not drawn) [Example 1, 3-O-acetyl-4"-deoxydesmycosin]	0.4 (≈ 0.501 µM)	0.2 (≈ 0.251 µM)	0.2 (≈ 0.251 µM)	> 100	100 (≈ 125 µM)	> 100	0.1 (≈ 0.125 µM)	≤ 0.05	0.8 (≈ 1 µM)	0.1 (≈ 0.125 µM)	≤ 0.05	≤ 0.05	0.2 (≈ 0.251 µM)	> 100	> 100	25 (≈ 31.3 µM)	> 100	> 100	50 (≈ 62.7 µM)	> 100	MIC [9, 21]: 50 µg/mL (≈ 62.7 µM); MIC (Proteus vulgaris OX19; read-out: MIC): 25 µg/mL (≈ 31.3 µM); MIC (Serratia marcescens; read-out: MIC): > 100 µg/mL; MIC [18, 31]: > 100 µg/mL
CCC(=O)OC1CC(=O)OC(CC)C(COC2OC(C)CC(OC)C2OC)C=C(C)C=CC(=O)C(C)CC(CC=O)C(OC2OC(C)C(O)C(N(C)C)C2O)C1C (stereo not drawn) [Example 2, 3-O-propionyl-4"-deoxydesmycosin]	0.4 (≈ 0.493 µM)	0.2 (≈ 0.246 µM)	0.2 (≈ 0.246 µM)	12.5 (≈ 15.4 µM)	–	12.5 (≈ 15.4 µM)	≤ 0.05	≤ 0.05	0.4 (≈ 0.493 µM)	0.1 (≈ 0.123 µM)	≤ 0.05	≤ 0.05	0.1 (≈ 0.123 µM)	> 100	100 (≈ 123 µM)	25 (≈ 30.8 µM)	> 100	> 100	50 (≈ 61.6 µM)	> 100	MIC [5, 32]: 25 µg/mL (≈ 30.8 µM); MIC ([9]; Streptococcus pyogenes): 12.5 µg/mL (≈ 15.4 µM); MIC (Proteus vulgaris OX19; read-out: MIC): 50 µg/mL (≈ 61.6 µM); MIC (Serratia marcescens; read-out: MIC): > 100 µg/mL; MIC [18, 31]: 50 µg/mL (≈ 61.6 µM)
CCCC(=O)OC1CC(=O)OC(CC)C(COC2OC(C)CC(OC)C2OC)C=C(C)C=CC(=O)C(C)CC(CC=O)C(OC2OC(C)C(O)C(N(C)C)C2O)C1C (stereo not drawn) [Example 3, 3-O-butyryl-4"-deoxydesmycosin]	0.4 (≈ 0.484 µM)	0.4 (≈ 0.484 µM)	0.2 (≈ 0.242 µM)	–	–	–	≤ 0.05	≤ 0.05	0.2 (≈ 0.242 µM)	0.1 (≈ 0.121 µM)	≤ 0.05	≤ 0.05	0.1 (≈ 0.121 µM)	> 100	> 100	25 (≈ 30.3 µM)	> 100	> 100	50 (≈ 60.5 µM)	> 100	MIC [5, 32]: 25 µg/mL (≈ 30.3 µM); MIC ([6]; Staphylococcus aureus 0127, * clinical isolate, macrolide-resistant bacteria A group, read-out: MIC): 25 µg/mL (≈ 30.3 µM); MIC [9, 21]: 12.5 µg/mL (≈ 15.1 µM); MIC ([19]; read-out: MIC): ≤ 0.05 µg/mL; MIC (Proteus vulgaris OX19; read-out: MIC): 50 µg/mL (≈ 60.5 µM); MIC (Serratia marcescens; read-out: MIC): > 100 µg/mL; MIC [18, 31]: > 100 µg/mL
CCC1OC(=O)CC(OC(=O)c2ccccc2)C(C)C(OC2OC(C)C(O)C(N(C)C)C2O)C(CC=O)CC(C)C(=O)C=CC(C)=CC1COC1OC(C)CC(OC)C1OC (stereo not drawn) [Example 5, 3-O-benzoyl-4"-deoxydesmycosin]	0.2 (≈ 0.233 µM)	0.2 (≈ 0.233 µM)	0.2 (≈ 0.233 µM)	50 (≈ 58.1 µM)	> 100	> 100	0.1 (≈ 0.116 µM)	≤ 0.05	1.6 (≈ 1.86 µM)	0.2 (≈ 0.233 µM)	≤ 0.05	≤ 0.05	0.1 (≈ 0.116 µM)	> 100	> 100	25 (≈ 29.1 µM)	> 100	> 100	100 (≈ 116 µM)	> 100	MIC [9, 21]: 25 µg/mL (≈ 29.1 µM); MIC (Proteus vulgaris OX19; read-out: MIC): 50 µg/mL (≈ 58.1 µM); MIC (Serratia marcescens; read-out: MIC): > 100 µg/mL; MIC [18, 31]: > 100 µg/mL
CCC1OC(=O)CC(OC(=O)Cc2ccccc2)C(C)C(OC2OC(C)C(O)C(N(C)C)C2O)C(CC=O)CC(C)C(=O)C=CC(C)=CC1COC1OC(C)CC(OC)C1OC (stereo not drawn) [Example 6, 3-O-phenylacetyl-4"-deoxydesmycosin]	0.1 (≈ 0.114 µM)	0.2 (≈ 0.229 µM)	0.1 (≈ 0.114 µM)	> 100	> 100	> 100	–	0.1 (≈ 0.114 µM)	–	–	–	–	–	–	–	–	–	–	50 (≈ 57.2 µM)	> 100	MIC ([7]; Staphylococcus epidermidis): ≤ 0.05 µg/mL; MIC [10]; 1501: 0.4 µg/mL (≈ 0.458 µM); MIC ([11]; Streptococcus, 1020): 0.1 µg/mL (≈ 0.114 µM); MIC (Sarcina lutea ATCC 9341): ≤ 0.05 µg/mL; MIC ([12]; Micrococcus flavus): ≤ 0.05 µg/mL; MIC [19]: ≤ 0.05 µg/mL; MIC ([13]; Bacillus subtilis): 0.1 µg/mL (≈ 0.114 µM); MIC ([14]; Escherichia coli): > 100 µg/mL; MIC (Escherichia coli B; Escherichia coli): > 100 µg/mL; MIC ([15]; Klebsiella pneumoniae): 25 µg/mL (≈ 28.6 µM); MIC (Salmonella typhosa H901; [33]): > 100 µg/mL; MIC ([16]; ENTERITIDIS): > 100 µg/mL; MIC (Proteus vulgaris OX19): 50 µg/mL (≈ 57.2 µM); MIC (Serratia marcescens): > 100 µg/mL; MIC ([18]; Pseudomonas aeruginosa): > 100 µg/mL
CCC1OC(=O)CC(OC(C)=O)C(C)C(OC2OC(C)C(O)C(N(C)C)C2O)C(C)CC(C)C(=O)C=CC(C)=CC1COC1OC(C)CC(OC)C1OC (stereo not drawn) [Example 7, 3-O-acetyl-19-deformyl-4"-deoxydesmycosin]	0.4 (≈ 0.52 µM)	0.2 (≈ 0.26 µM)	0.2 (≈ 0.26 µM)	> 100	> 100	> 100	0.1 (≈ 0.13 µM)	0.1 (≈ 0.13 µM)	3.1 (≈ 4.03 µM)	0.8 (≈ 1.04 µM)	≤ 0.05	≤ 0.05	0.1 (≈ 0.13 µM)	> 100	> 100	25 (≈ 32.5 µM)	> 100	> 100	> 100	> 100	MIC ([9]; Streptococcus pyogenes): > 100 µg/mL; MIC (Proteus vulgaris OX19; read-out: MIC): 100 µg/mL (≈ 130 µM); MIC (Serratia marcescens; read-out: MIC): > 100 µg/mL; MIC [18, 31]: > 100 µg/mL
CCC(=O)OC1CC(=O)OC(CC)C(COC2OC(C)CC(OC)C2OC)C=C(C)C=CC(=O)C(C)CC(C)C(OC2OC(C)C(O)C(N(C)C)C2O)C1C (stereo not drawn) [Example 8, 3-O-propionyl-19-deformyl-4"-deoxydesmycosin]	0.4 (≈ 0.51 µM)	0.4 (≈ 0.51 µM)	0.2 (≈ 0.255 µM)	> 100	> 100	> 100	0.1 (≈ 0.128 µM)	0.1 (≈ 0.128 µM)	3.1 (≈ 3.95 µM)	0.4 (≈ 0.51 µM)	≤ 0.05	≤ 0.05	0.1 (≈ 0.128 µM)	> 100	100 (≈ 128 µM)	12.5 (≈ 15.9 µM)	> 100	> 100	100 (≈ 128 µM)	> 100	MIC ([9]; Streptococcus pyogenes): > 100 µg/mL; MIC (Proteus vulgaris OX19; read-out: MIC): 100 µg/mL (≈ 128 µM); MIC (Serratia marcescens; read-out: MIC): > 100 µg/mL; MIC [18, 31]: > 100 µg/mL
CCC1OC(=O)CC(OC(=O)c2ccccc2)C(C)C(OC2OC(C)C(O)C(N(C)C)C2O)C(C)CC(C)C(=O)C=CC(C)=CC1COC1OC(C)CC(OC)C1OC (stereo not drawn) [Example 9, 3-O-benzoyl-19-deformyl-4"-deoxydesmycosin]	0.2 (≈ 0.24 µM)	0.2 (≈ 0.24 µM)	0.1 (≈ 0.12 µM)	> 100	> 100	> 100	≤ 0.05	≤ 0.05	1.6 (≈ 1.92 µM)	0.2 (≈ 0.24 µM)	≤ 0.05	≤ 0.05	0.2 (≈ 0.24 µM)	> 100	> 100	25 (≈ 30 µM)	> 100	> 100	> 100	> 100	MIC ([9]; Streptococcus pyogenes): > 100 µg/mL; MIC (Proteus vulgaris OX19; read-out: MIC): 100 µg/mL (≈ 120 µM); MIC (Serratia marcescens; read-out: MIC): > 100 µg/mL; MIC [18, 31]: > 100 µg/mL
CCC1OC(=O)CC(OC(=O)Cc2ccccc2)C(C)C(OC2OC(C)C(O)C(N(C)C)C2O)C(C)CC(C)C(=O)C=CC(C)=CC1COC1OC(C)CC(OC)C1OC (stereo not drawn) [Example 10, 3-O-phenylacetyl-19-deformyl-4"-deoxydesmycosin]	0.1 (≈ 0.118 µM)	0.1 (≈ 0.118 µM)	0.1 (≈ 0.118 µM)	> 100	> 100	> 100	–	≤ 0.05	–	–	–	–	–	–	–	–	–	–	25 (≈ 29.5 µM)	> 100	MIC ([7]; Staphylococcus epidermidis): ≤ 0.05 µg/mL; MIC [10]; 1501: 3.1 µg/mL (≈ 3.66 µM); MIC ([11]; Streptococcus, 1020): 0.4 µg/mL (≈ 0.473 µM); MIC (Sarcina lutea ATCC 9341): ≤ 0.05 µg/mL; MIC ([12]; Micrococcus flavus): ≤ 0.05 µg/mL; MIC [19]: ≤ 0.05 µg/mL; MIC ([13]; Bacillus subtilis): 0.2 µg/mL (≈ 0.236 µM); MIC ([14]; Escherichia coli): > 100 µg/mL; MIC (Escherichia coli B; Escherichia coli): > 100 µg/mL; MIC ([15]; Klebsiella pneumoniae): 12.5 µg/mL (≈ 14.8 µM); MIC (Salmonella typhosa H901; [33]): > 100 µg/mL; MIC ([16]; ENTERITIDIS): > 100 µg/mL; MIC (Proteus vulgaris OX19): 100 µg/mL (≈ 118 µM); MIC (Serratia marcescens): > 100 µg/mL; MIC ([18]; Pseudomonas aeruginosa): > 100 µg/mL
